Measured values as given in patent publication US20120201915A1, “THERAPEUTIC COMPOSITION” (priority 2009, published 2012).

System: contact dermatitis from poison sumac
Test: Case-study: contact dermatitis from poison sumac
Type: in vivo, human
Settings: used by the patient before Composition I
Text: In one case-study, a patient had contact dermatitis from poison sumac which was on the volar surfaces of both arms from the hand to the elbow. […] They continued application of the Composition I, TID (three daily doses), and by four days, their skin had healed.

With C[C@]12CCC(=O)C=C1CC[C@@H]1[C@@H]2C(=O)C[C@@]2(C)[C@H]1CC[C@]2(O)C(=O)CO [cortisone] the “relief from earlier topical treatments” value was “without relief”.
